Experimental findings from patent EP4796540A2, “N-SULFONAMIDE NITROGEN-CONTAINING FUSED HETEROCYCLIC COMPOUND, AND APPLICATION THEREOF” (priority 2023, dated 2025) are described below.

SMILES strings stand for the structures.

The test concerns p53 Y220C mutant. Kind of test: HTRF assay: compounds promoting the binding of p53 Y220C mutant with DNA. The test is classed as biochemical. The note with it: His-tagged p53 Y220C (94-312), biotin-labeled DNA. Here is the method: Homogeneous time-resolved fluorescence (HTRF) assay was used to measure the reactivation effect of compounds on the p53 Y220C mutant. The recombinant His-tagged p53 Y220C (94-312) used for HTRF assays was expressed in E. coli and purified to the purity of 90% through Ni-NTA column. The biotin-labeled DNA used for HTRF assays was synthesized by Pharmaron Inc, with the specific sequence of 5'-[…]-3' .
The binding of recombinant His-tagged p53 Y220C protein and biotin-labeled DNA was measured using fluorescence resonance energy transfer (FRET). For FRET assays, binding between p53 mutants and DNA sequences was measured by detecting the fluorescence of the interaction between an anti-His antibody (Cisbio, 61HI2KLA) conjugated to Eu and d2-conjugated streptavidin (Cisbio, 610SADLF) bound to a biotin-labeled DNA molecule. Compounds were prepared into 2 mM stock solutions and serially diluted into 10 concentrations at a 1:3 ratio in DMSO. Each 200-fold working concentration compound was sequentially diluted to 4-fold working concentration. 4 µL of compound solution was transferred line by line to a 384-well assay plate using Echo, containing 2 replicates per column. 4 µL of p53 solution was added to the assay plate. 4 µL of biotin DNA solution was added to the assay plate, and then 4 µL of assay solution (His-Eu antibody and streptavidin-d2) was added to each well of the assay plate. The assay plate was incubated overnight and protected from light. Fluorescence was read on BMG (BMG LRBTECH).
The ratio of each well was calculated (ratio_665 nm/615 nm-ratio_background). The activity % was calculated as follows: C = (Ave_Ac−Ave_Ba)/(Ave_Dc_Ave_Bd) [formula] R data = (A−Ave_Ba−C*D)/(D−Ave_Bd)*(Ave_Dc−Ave_Bd) [formula] Activity % = R data/Ave_VC*100. [formula] • A: fluorescence intensity of the sample at 665 nm; • D: fluorescence intensity of the sample at 615 nm; • Ba: fluorescence intensity of the plate background at 665 nm; • Bd: fluorescence intensity of the plate background at 615 nm; • Dc: fluorescence intensity of HIS-Eu background at 615 nm; • Ac: fluorescence intensity of streptavidin-d2 background at 665 nm; • VC: DMSO treatment group.
SC150 was calculated using Graphpad 8.0 to fit the logarithm of activity% and compound concentration to a nonlinear regression (dose response-variable slope). Table 1: Activity of compounds promoting the binding of p53 Y220C mutant with DNA
Background: Time-resolved FRET reads energy transfer from a long-lived donor to a nearby acceptor.

`[2H]C([2H])([2H])Oc1nc(C(=O)NS(C)(=O)=O)ccc1NCC#Cc1cc2c(N[C@@H]3CCN(C)C[C@@H]3F)cccn2c1CC(F)(F)F` [Cpd-2, 5-((3-(8-(((3S,4R)-3-Fluoro-1-methylpiperidin-4-yl)amino)-3-(2,2,2-trifluoroethyl)indolizin-2-yl)prop-2-yn-1-yl)amino)-6-(methoxy-d3)-N-(methylsulfonyl)picolinamide] returned an SC150 of 0.58 nM.
